Source: US20080255207A1, “5-Thioxo-1,5-Dihydro-2H-Pyrrol-2-One Derivatives As Liver X Receptor Modulators” (ASTRAZENECA AB, priority 2005, published 2008)

Key:
human LXRalpha = target: T1, human LXRalpha (Homo sapiens, UniProt Q13133); test: Transactivation (reporter gene) assay, GAL4-LXRalpha LBD luciferase in U2/OS cells; type: cell-based; conditions: U2/OS osteosarcoma cells, 48 h; T0901317 at 1 μM as 100% control
T1 construct: human LXRalpha (amino acid 205-447); expressed in transfected cells; host or cells: U2/OS osteosarcoma cells, electroporated with pSGGAL-LXRalpha
T1 sequence (Q13133 205-447): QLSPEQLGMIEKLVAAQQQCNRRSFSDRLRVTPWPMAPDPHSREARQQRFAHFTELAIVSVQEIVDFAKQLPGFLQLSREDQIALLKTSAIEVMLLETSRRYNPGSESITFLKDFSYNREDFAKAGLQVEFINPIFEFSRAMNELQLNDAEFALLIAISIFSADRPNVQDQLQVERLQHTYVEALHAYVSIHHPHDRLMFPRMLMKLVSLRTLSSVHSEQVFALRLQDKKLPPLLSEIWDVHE
Description: (§1) Expression vectors were prepared by inserting the ligand binding domain cDNA (complementary DNA) of human LXRalpha (amino acid 205447) and LXRbeta (amino acid 216-461) in frame with, 3′ to the yeast GAL4 transcription factor DNA binding domain and the nuclear localization signal from the T-antigen of Polyoma Virus in the eucaryotic expression vector pSG5 (Stratagene). The resulting expression vectors pSGGAL-LXRalpha and pSGGAL-LXRbeta were used in cotransfection experiments together with the pGL3 luciferase reporter plasmid containing a minirnal SV40 promoter and five copies of the UAS GAL4 recognition site. 2.5 μg pSGGAL-LXRalpha or beta were mixed with 25 μg pGL3 5×UAS and 22.5 μg pBluscript in 0.95 mL ice cold PBS containing approx. 4-9 milj. U2/OS osteosarcoma cells. After a five minute incubation on ice the cell/DNA mixture was electroporated in 0.4 cm cuvettes at 960 μF, 230 V using a BioRad electroporator and diluted to 0.32 milj cells/mL in complete DMEM (Dulbecco's Modified Eagle Medium) medium (Gibco 31966-021). Cells from at least two electroporations were pooled in order to avoid variations between different electroportations. […] Luciferase activity was measured using the “Luminescence 384 protocol” in the Wallac Victor reader after 15 min. incubation at room temperature. […]

human LXRbeta = target: T2, human LXRbeta (Homo sapiens, UniProt P55055); test: Transactivation (reporter gene) assay, GAL4-LXRbeta LBD luciferase in U2/OS cells; type: cell-based; conditions: U2/OS osteosarcoma cells, 48 h; T0901317 at 1 μM as 100% control
T2 construct: LXRbeta (amino acid 216-461); expressed in transfected cells; host or cells: U2/OS osteosarcoma cells, electroporated with pSGGAL-LXRbeta
T2 sequence (P55055 215-460 limits assumed): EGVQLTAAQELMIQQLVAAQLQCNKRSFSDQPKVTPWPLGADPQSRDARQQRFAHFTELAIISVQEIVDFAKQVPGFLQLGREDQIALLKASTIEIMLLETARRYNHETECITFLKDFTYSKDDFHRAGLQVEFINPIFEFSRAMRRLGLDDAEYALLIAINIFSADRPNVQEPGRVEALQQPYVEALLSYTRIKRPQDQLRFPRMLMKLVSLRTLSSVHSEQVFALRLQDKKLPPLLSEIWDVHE
Description: as §1

EC50 (human LXRalpha): 280 nM
EC50 (human LXRbeta): 320 nM
Structure (SMILES): Nc1ccc(CN2C(=O)C(Nc3ccc(OC(F)F)cc3)=C(c3ccccc3)C2=S)cn1 [Example 1, 1-[(6-aminopyridin-3-yl)methyl]-3-{[4-(difluoromethoxy)phenyl]amino}-4-phenyl-5-thioxo-1,5-dihydro-2H-pyrrol-2-one]
